Results taken from patent publication US8088401B2, “Composite material comprising a porous semiconductor impregnated with an organic substance” (Psimedica Limited, priority 2003, dated 2012).
Where a name gives a salt, the structure may show the parent alone.

Experiments:
[1] = Gravimetric loading of porous silicon p+ membrane with beneficial organic substance; assay type: physicochemical; conditions: for pore volume available occupied by the drug, given as value/drug density / w/w loading (weight gain after drug loading and washing): mesoporous p+ silicon membrane, porosity 63%; for w/w loading (weight gain after drug loading and washing): melt, heated solution or rotary evaporation loading; for maximum w/w loading capacity: 63% porosity silicon matrix, from the density; for pore volume available occupied by the drug: liquid applied directly, 70° C. for 20 minutes
Description: The porous membranes were prepared and loaded with beneficial substance according to the following general method:—
A 3 inch diameter p+ wafer (5-15 milli ohm cm) was made mesoporous in a 50:50 by volume mixture of 40 wt % HF and ethanol by anodisation at 35 mA/cm^2 for 90 minutes. […] The membrane was then broken into flakes of weight in the range 10-60 mg for gravimetric and EDX studies of beneficial substance incorporation.
Loading was performed on two similar porous silicon (p+) membranes.
The pore volume available in the porous silicon membrane that can be occupied by the drug is calculated as follows: […]

[2] = HPLC analysis of drug extracted after incorporation into porous silicon; assay type: physicochemical
Description: Following incorporation into the membrane, chlorambucil was extracted and subjected to HPLC analysis. A known amount of the incorporated Chlorambucil/porous silicon (typically 10-15 mg, dependent on the level of incorporation) was placed into a volumetric flask and made up to a volume with 100 ml of ethanol, shaken and sonicated for 30 minutes at 30° C. From this stock solution 25 ml were transferred by pipette to a 100 ml volumetric flask to give the sample solution. Prior to analysis by HPLC the sample was filter through a 0.45 micron filter.
The chromatographic conditions used for this analysis were:—

[3] = Mortality and survival of tumour-bearing nude mice in the chlorambucil study; assay type: in vivo; conditions: for mortality rate: without porous silicon
Description: The following protocol was adopted:— • 1. Culture of human cells and implantation of the tumour cells as solid tumours in nude mice: The carcinoma cell-line was cultured in RPMI and Ham's F-12 media respectively with 10% fetal calf serum in a CO2 incubator and subcultured every two to three days until growing to a number enough for implantation in animals. The cells were then implanted as solid tumors in nude mice]. The cells were collected in HBSS (balanced salt solution). One hundred microliters of cell suspension in HBSS (5×10^6 cells) was injected subcutaneously into right gluteal region of nude mice (female, 6 to 9 week old nude mice with average body weight of 25 g, housed in pathogen-free conditions) using a 25-gauge needle. • 2. Animals groups: Animals were randomly grouped into control 1 (injected with peanut oil), control 2 (injected with porous silicon without drug), free chlorambucil (drug injected without porous silicon directly into tumour or injected via intraperitoneal route) and chlorambucil impregnated porous silicon groups. Each group included 16 to 20 animals. • 3. Injection of chlorambucil impregnated porous silicon in transplanted tumours: On day 14 after implantation of tumours (diameter of the tumour about 1 cm), the chlorambucil impregnated formulation was applied to the centre of the tumours. • 4. Tumour volumetrics: The sizes of implanted tumours in nude mice was estimated every 3 days. The largest and smallest diameters were measured by a vernier caliper and tumour volumes estimated according the formula: V=1/2 ab^2, where a and b are largest and smallest tumour diameters respectively, and V is the tumour volume in cm^3.
The effects of intra-tumoural administered chlorambucil loaded porous silicon on the growth of the tumour was studied and compared with control and systemic therapy groups. The body weight of the animals was estimated by subtracting the tumour volume (cm3) from the total body weight (g) every 3 days. The survival time of each experimental animal was recorded.

[4] = aqueous environment; cited from earlier work
[5] = 55% porous silicon, thin oxidised layers; cited from earlier work

Compound	pore volume available occupied by the drug, given as value/drug density [1]	w/w loading (weight gain after drug loading and washing) [1]	further results
CN(C)CCC=C1c2ccccc2CCc2ccccc21 [Amitriptyline HCl]	74.07 /drug density %	35.07 % w/w	
CS(=O)(=O)OCCCCOS(C)(=O)=O [Busulfan]	78.53 /drug density %	37.54 % w/w	
O=C(O)CCCc1ccc(N(CCCl)CCCl)cc1 [Chlorambucil]	88.40 /drug density %	39.19 % w/w	degradation after incorporation into and release from porous silicon (HPLC) [2]: without significant degradation; mortality rate ([3]; 720 ug): 50%; mortality rate ([3]; 1500 ug (2×LD50), intratumour): 90%; LD50 ([3]; nude mice, dose per animal): 720 µg; apparent activation energy for thermal degradation (Ea) [4]: 24.4 kcal/mol
O=P1(N(CCCl)CCCl)NCCCO1 (centres unmarked) [Cyclophosohamide]	104 /drug density %	44.4 % w/w	
CC1=CC(=O)c2c(O)cccc2C1=O [Plumbagin]	98.50 /drug density %	34.68 % w/w	
albumin			volume percentage adsorbed [5]: 10.7%

Now from value to compound, other results behind:

pore volume available occupied by the drug, given as value/drug density [1]	w/w loading (weight gain after drug loading and washing) [1]	Compound	further results
55.62 /drug density %	42.57 % w/w	CCCCCCCCCCCC(=O)O [Lauric Acid]	
64 /drug density %	32.93 % w/w	c1ccc([C@H]2CN3CCSC3=N2)cc1 [Levamisole HCl]	
	19.81 % w/w	CC(=O)O[C@]1(C(C)=O)CC[C@H]2[C@@H]3C[C@H](C)C4=CC(=O)CC[C@]4(C)[C@H]3CC[C@@]21C [Medroxyprogesteron Acetate]	
	16.71 % w/w	CC(=O)O[C@H]1C(=O)[C@@]2(C)[C@H]([C@H](OC(=O)c3ccccc3)[C@]3(O)C[C@H](OC(=O)[C@H](O)[C@@H](NC(=O)c4ccccc4)c4ccccc4)C(C)=C1C3(C)C)[C@]1(OC(C)=O)CO[C@@H]1C[C@@H]2O [Paclitaxel]	degradation after incorporation into and release from porous silicon (HPLC) [2]: without significant degradation
	35.33 % w/w	CCN(CC)CCOC(=O)c1ccc(N)cc1 [Procaine]	loading w/v ([1]; EtOH:dH2O 1:1 solution, 110° C., 25 minutes): 71.38 % w/v
	40.67 % w/w	CC(C)Cc1ccc(C(C)C(=O)O)cc1 (stereo not drawn) [S-(+)-Ibuprofen]	
	37 % w/w	Cc1c(C)c2c(c(C)c1O)CC[C@@](C)(CCC[C@H](C)CCC[C@H](C)CCCC(C)C)O2 [Vitamin E, α-tocopherol]	maximum w/w loading capacity [1]: 41%; pore volume available occupied by the drug [1]: 88%
	36 % w/w	Vitamin K	maximum w/w loading capacity [1]: 42%; pore volume available occupied by the drug [1]: 80%
